How the values were obtained:
windgrass [1] = assay: Test Example 4: herbicidal effect by soil treatment (Table 19, symbol L); assay type: in vivo, windgrass (Apera spica-venti); details: amount of applied herbicide 320 g/ha
How it was run: (§1)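 Applied as a water-diluted emulsion, the compound was sprayed onto soil covering newly sown seeds. Evaluation came three weeks after application, in a greenhouse held at 25° C. to 30° C.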

barnyard grass [2] = assay: Test Example 4: herbicidal effect by soil treatment (Table 19, symbol H); assay type: in vivo, barnyard grass (Echinochloa crus-galli); details: amount of applied herbicide 320 g/ha
How it was run: as §1

southern crabgrass [3] = assay: Test Example 4: herbicidal effect by soil treatment (Table 19, symbol F); assay type: in vivo, southern crabgrass (Digitaria ciliaris); details: amount of applied herbicide 320 g/ha
How it was run: as §1

redroot pigweed [4] = assay: Test Example 4: herbicidal effect by soil treatment (Table 19, symbol N); assay type: in vivo, redroot pigweed (Amaranthus retroflexus); details: amount of applied herbicide 320 g/ha
How it was run: as §1

wild oat [5] = assay: Test Example 4: herbicidal effect by soil treatment (Table 19, symbol I); assay type: in vivo, wild oat (Avena fatua); details: amount of applied herbicide 320 g/ha
How it was run: as §1

chickweed [6] = assay: Test Example 5: herbicidal effect by foliage application, plastic box (Table 20, symbol P); assay type: in vivo, common chickweed (Stellaria media); details: amount of applied herbicide 320 g/ha; foliage application after 14-day growth; evaluated three weeks after application
How it was run: (§2)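 Sow seeds spot-wise in sterilized diluvial soil; cover with ~1.5 cm soil. Grow 14 days in greenhouse, 25° C. to 30° C. Spray foliage with emulsion diluted to predetermined amount. Rate effect after 3 weeks.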

blackgrass [7] = assay: Test Example 5: herbicidal effect by foliage application, plastic box (Table 20, symbol J); assay type: in vivo, blackgrass (Alopecurus myosuroides); details: amount of applied herbicide 320 g/ha; foliage application after 14-day growth; evaluated three weeks after application
How it was run: as §2

velvetleaf [8] = assay: Test Example 4: herbicidal effect by soil treatment (Table 19, symbol M); assay type: in vivo, velvetleaf (Abutilon theophrasti); details: amount of applied herbicide 320 g/ha
How it was run: as §1

Italian ryegrass [9] = assay: Test Example 5: herbicidal effect by foliage application, plastic box (Table 20, symbol K); assay type: in vivo, Italian ryegrass (Lolium multiflorum); details: amount of applied herbicide 320 g/ha; foliage application after 14-day growth; evaluated three weeks after application
How it was run: as §2

lambsquarters [10] = assay: Test Example 5: herbicidal effect by foliage application, plastic box (Table 20, symbol O); assay type: in vivo, lambsquarters (Chenopodium album); details: amount of applied herbicide 320 g/ha; foliage application after 14-day growth; evaluated three weeks after application
How it was run: as §2

Italian ryegrass [11] = assay: Test Example 4: herbicidal effect by soil treatment (Table 19, symbol K); assay type: in vivo, Italian ryegrass (Lolium multiflorum); details: amount of applied herbicide 320 g/ha
How it was run: as §1

chickweed [12] = assay: Test Example 4: herbicidal effect by soil treatment (Table 19, symbol P); assay type: in vivo, common chickweed (Stellaria media); details: amount of applied herbicide 320 g/ha
How it was run: as §1

green foxtail [13] = assay: Test Example 4: herbicidal effect by soil treatment (Table 19, symbol G); assay type: in vivo, green foxtail (Setaria viridis); details: amount of applied herbicide 320 g/ha
How it was run: as §1

wild oat [14] = assay: Test Example 5: herbicidal effect by foliage application, plastic box (Table 20, symbol I); assay type: in vivo, wild oat (Avena fatua); details: amount of applied herbicide 320 g/ha; foliage application after 14-day growth; evaluated three weeks after application
How it was run: as §2

Chinese sprangletop = assay: Test Example 3: herbicidal effect by foliage application, Wagner pot (Table 18, symbol D); assay type: in vivo, chinese sprangletop (Leptochloa chinensis); details: 320 g/ha
How it was run: (§3)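 Plants were sown in alluvial soil held under 0.1–0.5 cm standing water and grown 14 days in a greenhouse at 25–30 °C. An emulsifiable formulation, water-diluted to the set dose, was then sprayed onto the foliage, and effects were scored three weeks later using previously defined criteria.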

windgrass [15] = assay: Test Example 5: herbicidal effect by foliage application, plastic box (Table 20, symbol L); assay type: in vivo, windgrass (Apera spica-venti); details: amount of applied herbicide 320 g/ha; foliage application after 14-day growth; evaluated three weeks after application
How it was run: as §2

green foxtail [16] = assay: Test Example 5: herbicidal effect by foliage application, plastic box (Table 20, symbol G); assay type: in vivo, green foxtail (Setaria viridis); details: amount of applied herbicide 320 g/ha; foliage application after 14-day growth; evaluated three weeks after application
How it was run: as §2

southern crabgrass [17] = assay: Test Example 5: herbicidal effect by foliage application, plastic box (Table 20, symbol F); assay type: in vivo, southern crabgrass (Digitaria ciliaris); details: amount of applied herbicide 320 g/ha; foliage application after 14-day growth; evaluated three weeks after application
How it was run: as §2

barnyard grass [18] = assay: Test Example 3: herbicidal effect by foliage application, Wagner pot (Table 18, symbol H); assay type: in vivo, barnyard grass (Echinochloa crus-galli); details: 320 g/ha
How it was run: as §3

velvetleaf [19] = assay: Test Example 5: herbicidal effect by foliage application, plastic box (Table 20, symbol M); assay type: in vivo, velvetleaf (Abutilon theophrasti); details: amount of applied herbicide 320 g/ha; foliage application after 14-day growth; evaluated three weeks after application
How it was run: as §2

lambsquarters [20] = assay: Test Example 4: herbicidal effect by soil treatment (Table 19, symbol O); assay type: in vivo, lambsquarters (Chenopodium album); details: amount of applied herbicide 320 g/ha
How it was run: as §1

persian speedwell [21] = assay: Test Example 5: herbicidal effect by foliage application, plastic box (Table 20, symbol R); assay type: in vivo, Persian speedwell (Veronica persica); details: amount of applied herbicide 320 g/ha; foliage application after 14-day growth; evaluated three weeks after application
How it was run: as §2

redroot pigweed [22] = assay: Test Example 5: herbicidal effect by foliage application, plastic box (Table 20, symbol N); assay type: in vivo, redroot pigweed (Amaranthus retroflexus); details: amount of applied herbicide 320 g/ha; foliage application after 14-day growth; evaluated three weeks after application
How it was run: as §2

rice flat sedge = assay: Test Example 3: herbicidal effect by foliage application, Wagner pot (Table 18, symbol E); assay type: in vivo, rice flat sedge (Cyperus iria); details: 320 g/ha
How it was run: as §3

barnyard grass [23] = assay: Test Example 5: herbicidal effect by foliage application, plastic box (Table 20, symbol H); assay type: in vivo, barnyard grass (Echinochloa crus-galli); details: amount of applied herbicide 320 g/ha; foliage application after 14-day growth; evaluated three weeks after application
How it was run: as §2

persian speedwell [24] = assay: Test Example 4: herbicidal effect by soil treatment (Table 19, symbol R); assay type: in vivo, Persian speedwell (Veronica persica); details: amount of applied herbicide 320 g/ha
How it was run: as §1

blackgrass [25] = assay: Test Example 4: herbicidal effect by soil treatment (Table 19, symbol J); assay type: in vivo, blackgrass (Alopecurus myosuroides); details: amount of applied herbicide 320 g/ha
How it was run: as §1

Structure (SMILES)	Herbicidal effect by foliage application, P: chickweed (chickweed [6])	Herbicidal effect by foliage application, J: blackgrass (blackgrass [7])	Herbicidal effect by foliage application, K: Italian ryegrass (Italian ryegrass [9])	Herbicidal effect by foliage application, O: lambsquarters (lambsquarters [10])	Herbicidal effect by foliage application, I: wild oat (wild oat [14])	herbicidal effect on Chinese sprangletop (D) (Chinese sprangletop)	Herbicidal effect by foliage application, L: windgrass (windgrass [15])	Herbicidal effect by foliage application, G: green foxtail (green foxtail [16])	Herbicidal effect by foliage application, F: southern crabgrass (southern crabgrass [17])	herbicidal effect on barnyard grass (H) (barnyard grass [18])	Herbicidal effect by foliage application, M: velvetleaf (velvetleaf [19])	Herbicidal effect by foliage application, R: persian speedwell (persian speedwell [21])	Herbicidal effect by foliage application, N: redroot pigweed (redroot pigweed [22])	herbicidal effect on rice flat sedge (E) (rice flat sedge)	Herbicidal effect by foliage application, H: barnyard grass (barnyard grass [23])	further results
Cc1nn(C)c(=O)c(-c2c(-c3ccc(Br)cc3)sc3c(C)cccc23)c1O [4-104]	5 (Herbicidal rate of 90% or more (almost completely withered))	0 (Herbicidal rate of 5% or less (almost no effect))	4 (Herbicidal rate of 70% or more and less than 90%)	4 (Herbicidal rate of 70% or more and less than 90%)	0 (Herbicidal rate of 5% or less (almost no effect))	0 (Herbicidal rate of 5% or less (almost no effect))	3 (Herbicidal rate of 40% or more and less than 70%)	0 (Herbicidal rate of 5% or less (almost no effect))	0 (Herbicidal rate of 5% or less (almost no effect))	2 (Herbicidal rate of 20% or more and less than 40%)	5 (Herbicidal rate of 90% or more (almost completely withered))	5 (Herbicidal rate of 90% or more (almost completely withered))	5 (Herbicidal rate of 90% or more (almost completely withered))	0 (Herbicidal rate of 5% or less (almost no effect))	0 (Herbicidal rate of 5% or less (almost no effect))	Herbicidal effect by soil treatment, L: windgrass (windgrass [1]): 0 (Herbicidal rate of 5% or less (almost no effect)); Herbicidal effect by soil treatment, H: barnyard grass (barnyard grass [2]): 0 (Herbicidal rate of 5% or less (almost no effect)); Herbicidal effect by soil treatment, F: southern crabgrass (southern crabgrass [3]): 0 (Herbicidal rate of 5% or less (almost no effect)); Herbicidal effect by soil treatment, N: redroot pigweed (redroot pigweed [4]): 4 (Herbicidal rate of 70% or more and less than 90%); Herbicidal effect by soil treatment, I: wild oat (wild oat [5]): 0 (Herbicidal rate of 5% or less (almost no effect)); Herbicidal effect by soil treatment, M: velvetleaf (velvetleaf [8]): 2 (Herbicidal rate of 20% or more and less than 40%); Herbicidal effect by soil treatment, K: Italian ryegrass (Italian ryegrass [11]): 0 (Herbicidal rate of 5% or less (almost no effect)); Herbicidal effect by soil treatment, P: chickweed (chickweed [12]): 3 (Herbicidal rate of 40% or more and less than 70%); Herbicidal effect by soil treatment, G: green foxtail (green foxtail [13]): 0 (Herbicidal rate of 5% or less (almost no effect)); Herbicidal effect by soil treatment, O: lambsquarters (lambsquarters [20]): 1 (Herbicidal rate of 5% or more and less than 20%); Herbicidal effect by soil treatment, R: persian speedwell (persian speedwell [24]): 3 (Herbicidal rate of 40% or more and less than 70%); Herbicidal effect by soil treatment, J: blackgrass (blackgrass [25]): 0 (Herbicidal rate of 5% or less (almost no effect))
Cc1nn(C)c(=O)c(-c2c(-c3ccc(OC(F)(F)F)cc3)sc3c(C)cccc23)c1O [4-130]	5 (Herbicidal rate of 90% or more (almost completely withered))	3 (Herbicidal rate of 40% or more and less than 70%)	3 (Herbicidal rate of 40% or more and less than 70%)	5 (Herbicidal rate of 90% or more (almost completely withered))	0 (Herbicidal rate of 5% or less (almost no effect))	0 (Herbicidal rate of 5% or less (almost no effect))	3 (Herbicidal rate of 40% or more and less than 70%)	0 (Herbicidal rate of 5% or less (almost no effect))	0 (Herbicidal rate of 5% or less (almost no effect))	3 (Herbicidal rate of 40% or more and less than 70%)	4 (Herbicidal rate of 70% or more and less than 90%)	5 (Herbicidal rate of 90% or more (almost completely withered))	5 (Herbicidal rate of 90% or more (almost completely withered))	4 (Herbicidal rate of 70% or more and less than 90%)	0 (Herbicidal rate of 5% or less (almost no effect))	L: windgrass, herbicidal effect grade (windgrass [1]): 0 (Herbicidal rate of 5% or less (almost no effect)); H: barnyard grass, herbicidal effect grade (barnyard grass [2]): 0 (Herbicidal rate of 5% or less (almost no effect)); F: southern crabgrass, herbicidal effect grade (southern crabgrass [3]): 0 (Herbicidal rate of 5% or less (almost no effect)); N: redroot pigweed, herbicidal effect grade (redroot pigweed [4]): 5 (Herbicidal rate of 90% or more (almost completely withered)); I: wild oat, herbicidal effect grade (wild oat [5]): 0 (Herbicidal rate of 5% or less (almost no effect)); M: velvetleaf, herbicidal effect grade (velvetleaf [8]): 2 (Herbicidal rate of 20% or more and less than 40%); K: Italian ryegrass, herbicidal effect grade (Italian ryegrass [11]): 0 (Herbicidal rate of 5% or less (almost no effect)); P: chickweed, herbicidal effect grade (chickweed [12]): 1 (Herbicidal rate of 5% or more and less than 20%); G: green foxtail, herbicidal effect grade (green foxtail [13]): 0 (Herbicidal rate of 5% or less (almost no effect)); O: lambsquarters, herbicidal effect grade (lambsquarters [20]): 1 (Herbicidal rate of 5% or more and less than 20%); R: persian speedwell, herbicidal effect grade (persian speedwell [24]): 4 (Herbicidal rate of 70% or more and less than 90%); J: blackgrass, herbicidal effect grade (blackgrass [25]): 0 (Herbicidal rate of 5% or less (almost no effect))

Reference: patent US20230085307A1, “PYRIDAZINONE COMPOUND AND HERBICIDE” (NISSAN CHEMICAL CORPORATION, priority 2019, published 2023)
